Data: US20080234226A1, “Use Of Iron(III) Complex Compounds For The Preparation Of A Medicament For Oral Treatment Of Iron Deficiency States In Patients With Chronic Inflammatory Bowel Disease” (VIFOR (INTERNATIONAL) AG, priority 2005, published 2008)
Like-named read-outs stand apart in the source and are kept apart here. Marks after values point to notes of the source that are not given here.

Key:
[1] = system: patients with chronic inflammatory bowel disease; test: Markers of oxidative stress (plasma, urine) before and after 14 days oral iron therapy; conditions: for U-8-iso-PGF2α: urine
Procedure: (§1) Analysis of the blood, urine and stool and the clinical evaluation of the disease were carried out on day 1 and 15.
(§2) The tablets were taken in accordance with the manufacturer's recommendations. Patient compliance was defined as the consumption of the tablets handed out, 80% being regarded as satisfactory.
(§3) Blood samples were taken, after fasting during the night, on the morning of day 1 and day 15.
Urine samples were collected on the morning of day 1 and day 15 and analysed for creatinine. Butyl-hydroxy-toluene (BHT) was added to 2 ml urine to a final concentration of 20 mM. The samples were then stored at −80° C. until analysed for urine 8-isoprostaglandin F2α (8-iso-PGF2α).
(§4) The values were analysed using the Wilcoxon test for pair differences, and the median and range are stated. The comparison of ratios was evaluated with the Fisher Exact test. P values of less than 0.05 are considered to be statistically significant. The data were analysed using the GraphPad Prism 4 for Windows statistics software package (GraphPad Software, Inc., San Diego, USA).

[2] = system: patients with chronic inflammatory bowel disease
Procedure: as §1, §2, §3
as §4, with “P values of less than 0.05 are considered to be statistically significant.” left out

[3] = system: patients with chronic inflammatory bowel disease; test: Clinical disease activity, symptoms, compliance and tolerability during oral iron therapy; type: in vivo, human; conditions: for total number of defecations per week: median (range)
Procedure: The status of the clinical disease was recorded before (day 1) and after (day 15) the iron therapy. The clinical disease activity was evaluated in patients with Crohn's disease with the “Harvey-Bradshaw Simple Index of Crohn's Disease Activity” (Harvey, R F., Bradshaw, J M., Lancet, 1980; 1:514). The Harvey-Bradshaw Simple Index is based on 5 parameters: general well-being, abdominal pain, stool frequency, abdominal mass and extraintestinal complications. The maximum score is 25 and scores of ≧5 indicate active Crohn's disease.
In patients with colitis ulcerosa, the “Simple Clinical Colitis Activity Index” was recorded (Walmsley, R S., Ayres, R C., Pounder, R E., Allan, R N., Gut 1998; 43; 29-32). The Simple Clinical Colitis Activity Index is based on 6 parameters: general well-being, stool frequency during the day and during the night, urgency of defecation, blood in the stool and extraintestinal complications. The maximum score is 20 and values of ≧4 indicate active colitis ulcerosa.
The Harvey-Bradshaw Simple Index and the Simple Clinical Colitis Activity Index are the same in respect of structure and the clinical significance of a given change in the scores. In order to allow the results of patients with Crohn's disease and colitis ulcerosa to be considered together, the activity scores were calculated as the actual score divided by the maximum score.
All the patients completed the particular Crohn's Disease Activity Index (CDAI) diary card (Best, W R., Becktel, J M., Singleton, J W., Kern, F. Jr., Gastroenterology 1976; 70:439-444) in the week before the start of the iron therapy and during the two weeks of iron therapy. The CDAI diary card comprises daily recording of general well-being, abdominal pain and the number of liquid or very soft stools. The total of seven daily records gives a score for each symptom. The higher the score, the more the patient is adversely affected. The medicament was administered during the study for 14 days and the mean for the two weeks is therefore used for the analysis. The patients also documented the occurrence of nausea before and during the iron therapy.
Patients who discontinued treatment with the medicament because of a deterioration in the symptoms were included in the analysis of the clinical disease activity and the symptom scores. Their disease activity scores were increased by two points, and the symptom scores were increased by one point per day.

[4] = system: white mice; conditions: cited from earlier work
[5] = after 14 days oral treatment, mean (SEM)
[6] = mean of differences after vs before 14 days treatment
[7] = serum, after 14 days oral treatment, mean (SEM)
[8] = serum, before treatment, mean (SEM)
[9] = plasma, after 14 days oral treatment, mean (SEM)
[10] = plasma, before treatment, mean (SEM)

iron(III)-polymaltose complex
P-beta-carotene ([1]; in vivo): 0.59 (0.13) μmol/l
P-cysteinyl-glycine ([1]; in vivo): 18.7 (0.9) μmol/l
P-glutathione ([1]; in vivo): 5.22 (0.30) μmol/l
P-homocysteine ([1]; in vivo): 6.53 (1.16) μmol/l
P-malondialdehyde ([1]; in vivo): 275 (21) nmol/l
P-vitamin A ([1]; in vivo): 1.6 (0.1) μmol/l
P-vitamin E ([1]; in vivo): 29.3 (1.6) μmol/l
change in plasma MDA values ([1]; in vivo): did not significantly change
change in urine iso-PGF2α values ([1]; in vivo): did not significantly change
P-beta-carotene ([1]; in vivo, po): 0.57 (0.09) μmol/l
P-cysteinyl-glycine ([1]; in vivo, po): 18.5 (1.1) μmol/l
P-glutathione ([1]; in vivo, po): 5.43 (0.43) μmol/l
P-homocysteine ([1]; in vivo, po): 6.04 (0.94) μmol/l
P-malondialdehyde ([1]; in vivo, po): 300 (19) nmol/l
P-vitamin A ([1]; in vivo, po): 1.9 (0.3) μmol/l
P-vitamin E ([1]; in vivo, po): 28.3 (1.7) μmol/l
increase of blood haemoglobin ([2]; 14 days treatment): Neither iron(II) sulfate nor iron(III)-polymaltose complex increased the blood haemoglobin
B-erythrocyte count [2, 5]: 4.7 (0.1) 10^12/l
B-haematocrit [2, 5]: 40 (1) %
B-reticulocyte count [2, 5]: 0.075 (0.008)* 10^12/l
Hypochromic red cells (HYPO) [2, 5]: 10.6 (2.8) %
MCH [2, 5]: 27 (0.7) pg
MCHC [2, 5]: 31.2 (0.3) g/dl
MCV [2, 5]: 85 (1.6) fl
Reticulocyte haemoglobin (CHr) [2, 5]: 29.5 (0.7) pg
B-erythrocyte count ([2]; before treatment, mean (SEM)): 4.7 (0.1) 10^12/l
B-haematocrit ([2]; before treatment, mean (SEM)): 39 (1) %
B-reticulocyte count ([2]; before treatment, mean (SEM)): 0.059 (0.006) 10^12/l
Hypochromic red cells (HYPO) ([2]; before treatment, mean (SEM)): 10.3 (3.0) %
MCH ([2]; before treatment, mean (SEM)): 27 (0.7) pg
MCHC ([2]; before treatment, mean (SEM)): 31.6 (0.3) g/dl
MCV ([2]; before treatment, mean (SEM)): 84 (1.8) fl
Reticulocyte haemoglobin (CHr) ([2]; before treatment, mean (SEM)): 29.1 (0.8) pg
B-haemoglobin ([2]; blood, after 14 days oral treatment, mean (SEM)): 12.5 (0.3) g/dl
B-haemoglobin ([2]; blood, before treatment, mean (SEM)): 12.5 (0.3) g/dl
B-ESR ([2]; in vivo): 22 (3) mm/h
B-leukocyte count ([2]; in vivo): 6.9 (0.6) 10^9/l
B-platelet count ([2]; in vivo): 347 (18) 10^9/l
S-CRP ([2]; in vivo): 12 (3) mg/l
B-ESR ([2]; in vivo, po): 20 (3)* mm/h
B-leukocyte count ([2]; in vivo, po): 7.0 (0.7) 10^9/l
B-platelet count ([2]; in vivo, po): 343 (21) 10^9/l
S-CRP ([2]; in vivo, po): 11 (2) mg/l
increase in blood reticulocyte count [2, 6]: 1.6e+10 L⁻¹
S-ferritin [2, 7]: 13 (2) μg/l
S-iron [2, 7]: 8.9 (1.5) μmol/l
S-soluble transferrin receptor [2, 7]: 2.03 (0.21) mg/l
S-total iron binding capacity [2, 7]: 77 (2) μmol/l
S-ferritin [2, 8]: 13 (2) μg/l
S-iron [2, 8]: 8.8 (0.8) μmol/l
S-soluble transferrin receptor [2, 8]: 2.08 (0.24) mg/l
S-total iron binding capacity [2, 8]: 77 (2) μmol/l
Increased nausea reported ([3]; human, in vivo): 7/20
change of clinical disease activity indices ([3]; human, in vivo): Neither the treatment with iron(II) sulfate (p=0.45) nor the treatment with iron(III)-polymaltose complex (p=0.80) substantially changed the clinical disease activity indices
influence on general wellbeing or abdominal pain score ([3]; human, in vivo): Neither iron(II) sulfate nor iron(III)-polymaltose complex had an influence
patients who discontinued the treatment (intolerable bowel movements, abdominal pain and nausea) ([3]; human, in vivo): one patient
tolerability of the iron therapy ([3]; human, in vivo): good tolerability

O=S(=O)([O-])[O-].[Fe+2] [Iron(II) sulfate, iron(II) sulfate]
change in plasma MDA values [1, 6]: 95 nmol/L
change in urine iso-PGF2α values [1, 6]: 194 pg/mg creatinine
P-malondialdehyde ([1]; plasma, after 14 days oral treatment (day 15), mean (SEM)): 395 (25)* nmol/l
P-beta-carotene [1, 9]: 0.67 (0.10) μmol/l
P-cysteine [1, 9]: 199 (13) μmol/l
P-cysteinyl-glycine [1, 9]: 16.6 (1.2) μmol/l
P-glutathione [1, 9]: 5.08 (0.54) μmol/l
P-homocysteine [1, 9]: 4.58 (0.47) μmol/l
P-vitamin A [1, 9]: 1.8 (0.2) μmol/l
P-vitamin C [1, 9]: 58.6 (5.4) μmol/l
P-vitamin E [1, 9]: 29.3 (1.5) μmol/l
P-malondialdehyde ([1]; plasma, before treatment (day 1), mean (SEM)): 294 (25) nmol/l
P-beta-carotene [1, 10]: 0.67 (0.09) μmol/l
P-cysteine [1, 10]: 203 (11) μmol/l
P-cysteinyl-glycine [1, 10]: 16.7 (1.1) μmol/l
P-glutathione [1, 10]: 5.05 (0.48) μmol/l
P-homocysteine [1, 10]: 4.87 (0.59) μmol/l
P-vitamin A [1, 10]: 1.7 (0.2) μmol/l
P-vitamin C [1, 10]: 60.9 (6.0) μmol/l
P-vitamin E [1, 10]: 30.2 (1.8) μmol/l
U-8-iso-PGF2α ([1]; after 14 days oral treatment (day 15), mean (SEM)): 629 (124) pg/mg creatinine
U-8-iso-PGF2α ([1]; before treatment (day 1), mean (SEM)): 417 (46) pg/mg creatinine
B-ESR ([2]; in vivo): 11 (2) mm/h
B-erythrocyte count ([2]; in vivo): 4.8 (0.1) 10^12/l
B-haematocrit ([2]; in vivo): 41 (1) %
B-haemoglobin ([2]; in vivo): 13.1 (0.4) g/dl
B-leukocyte count ([2]; in vivo): 6.5 (0.5) 10^9/l
B-platelet count ([2]; in vivo): 324 (23) 10^9/l
B-reticulocyte count ([2]; in vivo): 0.068 (0.006) 10^12/l
Hypochromic red cells (HYPO) ([2]; in vivo): 10.4 (3.6) %
MCH ([2]; in vivo): 27 (0.8) pg
MCHC ([2]; in vivo): 31.8 (0.4) g/dl
MCV ([2]; in vivo): 86 (1.6) fl
Reticulocyte haemoglobin (CHr) ([2]; in vivo): 29.3 (0.8) pg
S-CRP ([2]; in vivo): 7 (2) mg/l
S-ferritin ([2]; in vivo): 13 (2) μg/l
S-iron ([2]; in vivo): 11.1 (2.0) μmol/l
S-total iron binding capacity ([2]; in vivo): 81 (2) μmol/l
decrease in the hypochromic red cells ([2]; in vivo): −2.5%
decrease in the serum total iron binding capacity ([2]; in vivo): -7 µmol/L
increase in blood reticulocyte count ([2]; in vivo): 1.6e+10 L⁻¹
increase in s-ferritin ([2]; in vivo): 12 µg/L
increase in the reticulocyte haemoglobin ([2]; in vivo): 1.9 pg
increase of blood haemoglobin ([2]; in vivo): Neither iron(II) sulfate nor iron(III)-polymaltose complex increased the blood haemoglobin
B-ESR ([2]; in vivo, po): 10 (2) mm/h
B-erythrocyte count ([2]; in vivo, po): 4.8 (0.1) 10^12/l
B-haematocrit ([2]; in vivo, po): 42 (1)* %
B-haemoglobin ([2]; in vivo, po): 13.3 (0.3) g/dl
B-leukocyte count ([2]; in vivo, po): 6.3 (0.4) 10^9/l
B-platelet count ([2]; in vivo, po): 306 (21) 10^9/l
B-reticulocyte count ([2]; in vivo, po): 0.084 (0.007) 10^12/l
Hypochromic red cells (HYPO) ([2]; in vivo, po): 8.8 (3.2)* %
MCH ([2]; in vivo, po): 28 (0.8)*# pg
MCHC ([2]; in vivo, po): 32.0 (0.3) g/dl
MCV ([2]; in vivo, po): 87 (1.3)* fl
Reticulocyte haemoglobin (CHr) ([2]; in vivo, po): 31.1 (0.7)* pg
S-CRP ([2]; in vivo, po): 6 (2) mg/l
S-ferritin ([2]; in vivo, po): 25 (3)*# μg/l
S-iron ([2]; in vivo, po): 14.2 (2.2) μmol/l
S-total iron binding capacity ([2]; in vivo, po): 74 (2)*# μmol/l
influence on general wellbeing or abdominal pain score ([3]; CDAI diary card): Neither iron(II) sulfate nor iron(III)-polymaltose complex had an influence
total number of defecations per week ([3]; before treatment): 19 (7-106)
change of clinical disease activity indices ([3]; day 15 vs day 1): Neither the treatment with iron(II) sulfate (p=0.45) nor the treatment with iron(III)-polymaltose complex (p=0.80) substantially changed the clinical disease activity indices
total number of defecations per week ([3]; during the treatment): 24 (7-55)
patients who discontinued the treatment (intolerable bowel movements, abdominal pain and nausea) ([3]; of n=21 iron(II) sulfate, n=20 iron(III)-polymaltose complex): Three patients
Increased nausea reported ([3]; patients reporting / patients treated): 9/21
LD50 [4]: 230 mg iron/kg
